Assay [1] has as its target T1, VIP peptides (Homo sapiens, UniProt P01282).
T1 sequence (P01282 whole entry): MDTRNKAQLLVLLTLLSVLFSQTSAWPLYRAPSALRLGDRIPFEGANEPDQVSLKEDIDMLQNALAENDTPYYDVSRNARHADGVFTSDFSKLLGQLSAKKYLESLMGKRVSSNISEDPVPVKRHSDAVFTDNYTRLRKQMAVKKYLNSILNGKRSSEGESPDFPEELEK

The target of assay [2] is T2, VIP peptides (Cavia porcellus, UniProt P04566).
T2 sequence (P04566 whole entry): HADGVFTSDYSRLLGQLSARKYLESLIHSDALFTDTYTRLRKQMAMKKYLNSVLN

Values joined by “and” are separate entries in the source; they are usually repeats but may differ in a detail not shown here. Identical values can stand only once.

As usually defined, the Ki is the dissociation constant of the complex between target and ligand, obtained from inhibition or displacement. Read a low Ki as higher affinity.

`CC[C@H](C)[C@H](NC(=O)[C@H](CO)NC(=O)[C@H](CC(N)=O)NC(=O)[C@H](CC(C)C)NC(=O)[C@H](Cc1ccc(O)cc1)NC(=O)[C@H](CCCCN)NC(=O)[C@H](CCCCN)NC(=O)[C@@H](NC(=O)[C@H](C)NC(=O)[C@H](CCSC)NC(=O)[C@H](CCC(N)=O)NC(=O)[C@H](CCCCN)NC(=O)[C@H](CCCN=C(N)N)NC(=O)[C@H](CC(C)C)NC(=O)[C@H](CCCN=C(N)N)NC(=O)[C@@H](NC(=O)[C@H](Cc1ccc(O)cc1)NC(=O)[C@H](CC(N)=O)NC(=O)[C@H](CC(=O)O)NC(=O)[C@@H](NC(=O)[C@H](Cc1ccccc1)NC(=O)[C@@H](NC(=O)[C@H](C)NC(=O)[C@H](CC(=O)O)NC(=O)[C@H](CO)NC(=O)[C@@H](N)Cc1cnc[nH]1)C(C)C)[C@@H](C)O)[C@@H](C)O)C(C)C)C(=O)N[C@@H](CC(C)C)C(=O)N[C@@H](CC(N)=O)C(=O)O` [CAS_37221-79-7]: the Ki was 1.7 nM and 1.6 nM at VIP peptides [1]; 2.5 nM at VIP peptides [2]. In the case of `CC[C@H](C)[C@H](NC(=O)[C@H](CO)NC(=O)[C@H](CC(N)=O)NC(=O)[C@H](CC(C)C)NC(=O)[C@H](Cc1ccc(O)cc1)NC(=O)[C@H](CCCCN)NC(=O)[C@H](CCCCN)NC(=O)[C@@H](NC(=O)[C@@H](C)NC(=O)[C@H](CCSC)NC(=O)[C@H](CCC(N)=O)NC(=O)[C@H](CCCCN)NC(=O)[C@H](CCCN=C(N)N)NC(=O)[C@H](CC(C)C)NC(=O)[C@H](CCCN=C(N)N)NC(=O)[C@@H](NC(=O)[C@H](Cc1ccc(O)cc1)NC(=O)[C@H](CC(N)=O)NC(=O)[C@H](CC(=O)O)NC(=O)[C@@H](NC(=O)[C@H](Cc1ccccc1)NC(=O)[C@@H](NC(=O)[C@H](C)NC(=O)[C@H](CC(=O)O)NC(=O)[C@H](CO)NC(=O)[C@@H](N)Cc1cnc[nH]1)C(C)C)[C@@H](C)O)[C@@H](C)O)C(C)C)C(=O)N[C@@H](CC(C)C)C(=O)N[C@@H](CC(N)=O)C(N)=O` [VIP [D-Ala18]], the Ki is 3.5 nM and 15.4 nM and 12.1 nM at VIP peptides [1]; 17.8 nM on VIP peptides [2]. As for `CC[C@H](C)[C@H](NC(=O)[C@H](CO)NC(=O)[C@@H](CC(N)=O)NC(=O)[C@H](CC(C)C)NC(=O)[C@H](Cc1ccc(O)cc1)NC(=O)[C@H](CCCCN)NC(=O)[C@H](CCCCN)NC(=O)[C@@H](NC(=O)[C@H](C)NC(=O)[C@H](CCSC)NC(=O)[C@H](CCC(N)=O)NC(=O)[C@H](CCCCN)NC(=O)[C@H](CCCN=C(N)N)NC(=O)[C@H](CC(C)C)NC(=O)[C@H](CCCN=C(N)N)NC(=O)[C@@H](NC(=O)[C@H](Cc1ccc(O)cc1)NC(=O)[C@H](CC(N)=O)NC(=O)[C@H](CC(=O)O)NC(=O)[C@@H](NC(=O)[C@H](Cc1ccccc1)NC(=O)[C@@H](NC(=O)[C@H](C)NC(=O)[C@H](CC(=O)O)NC(=O)[C@H](CO)NC(=O)[C@@H](N)Cc1cnc[nH]1)C(C)C)[C@@H](C)O)[C@@H](C)O)C(C)C)C(=O)N[C@@H](CC(C)C)C(=O)N[C@@H](CC(N)=O)C(N)=O` [VIP [D-Asn24]], the Ki was 2.6 nM and 11.8 nM and 12.6 nM on VIP peptides [1]; 60.3 nM at VIP peptides [2].

Take `CC[C@H](C)[C@H](NC(=O)[C@H](CO)NC(=O)[C@H](CC(N)=O)NC(=O)[C@H](CC(C)C)NC(=O)[C@H](Cc1ccc(O)cc1)NC(=O)[C@H](CCCCN)NC(=O)[C@H](CCCCN)NC(=O)[C@@H](NC(=O)[C@H](C)NC(=O)[C@H](CCSC)NC(=O)[C@H](CCC(N)=O)NC(=O)[C@H](CCCCN)NC(=O)[C@H](CCCN=C(N)N)NC(=O)[C@H](CC(C)C)NC(=O)[C@H](CCCN=C(N)N)NC(=O)[C@@H](NC(=O)[C@H](Cc1ccc(O)cc1)NC(=O)[C@H](CC(N)=O)NC(=O)[C@@H](CC(=O)O)NC(=O)[C@@H](NC(=O)[C@H](Cc1ccccc1)NC(=O)[C@@H](NC(=O)[C@H](C)NC(=O)[C@H](CC(=O)O)NC(=O)[C@H](CO)NC(=O)[C@@H](N)Cc1cnc[nH]1)C(C)C)[C@@H](C)O)[C@@H](C)O)C(C)C)C(=O)N[C@@H](CC(C)C)C(=O)N[C@@H](CC(N)=O)C(N)=O` [VIP [D-Asp8]]: the Ki was 110 nM and 138 nM and 178 nM at VIP peptides [1]; 275 nM on VIP peptides [2]. Consider `CC[C@H](C)[C@H](NC(=O)[C@H](CO)NC(=O)[C@H](CC(N)=O)NC(=O)[C@H](CC(C)C)NC(=O)[C@H](Cc1ccc(O)cc1)NC(=O)[C@H](CCCCN)NC(=O)[C@H](CCCCN)NC(=O)[C@@H](NC(=O)[C@H](C)NC(=O)[C@H](CCSC)NC(=O)[C@H](CCC(N)=O)NC(=O)[C@H](CCCCN)NC(=O)[C@H](CCCN=C(N)N)NC(=O)[C@H](CC(C)C)NC(=O)[C@H](CCCN=C(N)N)NC(=O)[C@@H](NC(=O)[C@H](Cc1ccc(O)cc1)NC(=O)[C@H](CC(N)=O)NC(=O)[C@H](CC(=O)O)NC(=O)[C@@H](NC(=O)[C@H](Cc1ccccc1)NC(=O)[C@@H](NC(=O)[C@H](C)NC(=O)[C@H](CC(=O)O)NC(=O)[C@H](CO)NC(=O)[C@H](N)Cc1cnc[nH]1)C(C)C)[C@@H](C)O)[C@@H](C)O)C(C)C)C(=O)N[C@@H](CC(C)C)C(=O)N[C@@H](CC(N)=O)C(N)=O` [VIP [D-His1]], for which the Ki at VIP peptides [1] is 0.74 nM and 4.1 nM and 3.7 nM; at VIP peptides [2], 22.4 nM.

On to `CC[C@@H](C)[C@@H](NC(=O)[C@H](CO)NC(=O)[C@H](CC(N)=O)NC(=O)[C@H](CC(C)C)NC(=O)[C@H](Cc1ccc(O)cc1)NC(=O)[C@H](CCCCN)NC(=O)[C@H](CCCCN)NC(=O)[C@@H](NC(=O)[C@H](C)NC(=O)[C@H](CCSC)NC(=O)[C@H](CCC(N)=O)NC(=O)[C@H](CCCCN)NC(=O)[C@H](CCCN=C(N)N)NC(=O)[C@H](CC(C)C)NC(=O)[C@H](CCCN=C(N)N)NC(=O)[C@@H](NC(=O)[C@H](Cc1ccc(O)cc1)NC(=O)[C@H](CC(N)=O)NC(=O)[C@H](CC(=O)O)NC(=O)[C@@H](NC(=O)[C@H](Cc1ccccc1)NC(=O)[C@@H](NC(=O)[C@H](C)NC(=O)[C@H](CC(=O)O)NC(=O)[C@H](CO)NC(=O)[C@@H](N)Cc1cnc[nH]1)C(C)C)[C@@H](C)O)[C@@H](C)O)C(C)C)C(=O)N[C@@H](CC(C)C)C(=O)N[C@@H](CC(N)=O)C(N)=O` [VIP [D-Ile26]], for which the inhibitory constant (Ki) on VIP peptides [1] was 38.2 nM and 48.9 nM and 33.2 nM; at VIP peptides [2] it was 72.4 nM. On to `CC[C@H](C)[C@H](NC(=O)[C@H](CO)NC(=O)[C@H](CC(N)=O)NC(=O)[C@H](CC(C)C)NC(=O)[C@H](Cc1ccc(O)cc1)NC(=O)[C@H](CCCCN)NC(=O)[C@H](CCCCN)NC(=O)[C@@H](NC(=O)[C@H](C)NC(=O)[C@H](CCSC)NC(=O)[C@H](CCC(N)=O)NC(=O)[C@H](CCCCN)NC(=O)[C@H](CCCN=C(N)N)NC(=O)[C@@H](CC(C)C)NC(=O)[C@H](CCCN=C(N)N)NC(=O)[C@@H](NC(=O)[C@H](Cc1ccc(O)cc1)NC(=O)[C@H](CC(N)=O)NC(=O)[C@H](CC(=O)O)NC(=O)[C@@H](NC(=O)[C@H](Cc1ccccc1)NC(=O)[C@@H](NC(=O)[C@H](C)NC(=O)[C@H](CC(=O)O)NC(=O)[C@H](CO)NC(=O)[C@@H](N)Cc1cnc[nH]1)C(C)C)[C@@H](C)O)[C@@H](C)O)C(C)C)C(=O)N[C@@H](CC(C)C)C(=O)N[C@@H](CC(N)=O)C(N)=O` [VIP [D-Leu13]], for which the Ki on VIP peptides [1] is 13.5 nM and 23.4 nM and 16.9 nM; at VIP peptides [2] it was 51.2 nM. With `CC[C@H](C)[C@H](NC(=O)[C@H](CO)NC(=O)[C@H](CC(N)=O)NC(=O)[C@@H](CC(C)C)NC(=O)[C@H](Cc1ccc(O)cc1)NC(=O)[C@H](CCCCN)NC(=O)[C@H](CCCCN)NC(=O)[C@@H](NC(=O)[C@H](C)NC(=O)[C@H](CCSC)NC(=O)[C@H](CCC(N)=O)NC(=O)[C@H](CCCCN)NC(=O)[C@H](CCCN=C(N)N)NC(=O)[C@H](CC(C)C)NC(=O)[C@H](CCCN=C(N)N)NC(=O)[C@@H](NC(=O)[C@H](Cc1ccc(O)cc1)NC(=O)[C@H](CC(N)=O)NC(=O)[C@H](CC(=O)O)NC(=O)[C@@H](NC(=O)[C@H](Cc1ccccc1)NC(=O)[C@@H](NC(=O)[C@H](C)NC(=O)[C@H](CC(=O)O)NC(=O)[C@H](CO)NC(=O)[C@@H](N)Cc1cnc[nH]1)C(C)C)[C@@H](C)O)[C@@H](C)O)C(C)C)C(=O)N[C@@H](CC(C)C)C(=O)N[C@@H](CC(N)=O)C(N)=O` [VIP [D-Leu23]], the inhibition constant Ki at VIP peptides [1] is 3.1 nM and 19.5 nM and 18.6 nM; at VIP peptides [2], 41.6 nM. For `CC[C@H](C)[C@H](NC(=O)[C@H](CO)NC(=O)[C@H](CC(N)=O)NC(=O)[C@H](CC(C)C)NC(=O)[C@H](Cc1ccc(O)cc1)NC(=O)[C@H](CCCCN)NC(=O)[C@H](CCCCN)NC(=O)[C@@H](NC(=O)[C@H](C)NC(=O)[C@H](CCSC)NC(=O)[C@H](CCC(N)=O)NC(=O)[C@@H](CCCCN)NC(=O)[C@H](CCCN=C(N)N)NC(=O)[C@H](CC(C)C)NC(=O)[C@H](CCCN=C(N)N)NC(=O)[C@@H](NC(=O)[C@H](Cc1ccc(O)cc1)NC(=O)[C@H](CC(N)=O)NC(=O)[C@H](CC(=O)O)NC(=O)[C@@H](NC(=O)[C@H](Cc1ccccc1)NC(=O)[C@@H](NC(=O)[C@H](C)NC(=O)[C@H](CC(=O)O)NC(=O)[C@H](CO)NC(=O)[C@@H](N)Cc1cnc[nH]1)C(C)C)[C@@H](C)O)[C@@H](C)O)C(C)C)C(=O)N[C@@H](CC(C)C)C(=O)N[C@@H](CC(N)=O)C(N)=O` [VIP [D-Lys15]], the Ki is 2 nM and 13.8 nM and 10.9 nM at VIP peptides [1]; 19.9 nM at VIP peptides [2]. For the compound `CC[C@H](C)[C@H](NC(=O)[C@H](CO)NC(=O)[C@H](CC(N)=O)NC(=O)[C@H](CC(C)C)NC(=O)[C@H](Cc1ccc(O)cc1)NC(=O)[C@H](CCCCN)NC(=O)[C@H](CCCCN)NC(=O)[C@@H](NC(=O)[C@H](C)NC(=O)[C@@H](CCSC)NC(=O)[C@H](CCC(N)=O)NC(=O)[C@H](CCCCN)NC(=O)[C@H](CCCN=C(N)N)NC(=O)[C@H](CC(C)C)NC(=O)[C@H](CCCN=C(N)N)NC(=O)C(NC(=O)[C@H](Cc1ccc(O)cc1)NC(=O)[C@H](CC(N)=O)NC(=O)[C@H](CC(=O)O)NC(=O)C(NC(=O)[C@H](Cc1ccccc1)NC(=O)[C@@H](NC(=O)[C@H](C)NC(=O)[C@H](CC(=O)O)NC(=O)[C@H](CO)NC(=O)[C@@H](N)Cc1cnc[nH]1)C(C)C)[C@@H](C)O)[C@@H](C)O)C(C)C)C(=O)N[C@@H](CC(C)C)C(=O)N[C@@H](CC(N)=O)C(N)=O` (stereo partly drawn) [VIP [D-Met17]], the Ki on VIP peptides [1] was 6.7 nM and 29.5 nM and 36.3 nM.
